In patent US6464978B1, “Vaccination and methods against multiple sclerosis resulting from pathogenic responses by specific T cell populations” (The Immune Response Corporation, priority 1989, dated 2002):
Several values for one entry are separate records, joined by “and”; a condition that tells them apart may be missing. Equal values may be shown once. Entries after “also recorded” stand apart in the source; their conditions may differ.

What was measured:
EAE [1] = experiment: Vaccination against EAE in the Lewis rat model, daily clinical scoring after MBP challenge; assay type: in vivo, Lewis rats; parameters: key to EAE clinical score, Days After Challenge 18 / EAE clinical score, Days After Challenge 10 / EAE clinical score, Days After Challenge 11 / EAE clinical score, Days After Challenge 12 / EAE clinical score, Days After Challenge 13 / EAE clinical score, Days After Challenge 14 / EAE clinical score, Days After Challenge 15 / EAE clinical score, Days After Challenge 16 / EAE clinical score, Days After Challenge 17 / EAE clinical score, Days After Challenge 19 / EAE clinical score, Days After Challenge 20: —: no signs; 1: limp tail; 2: hind leg weakness; 3: hind leg paralysis; conditions: for EAE clinical score, Days After Challenge 10: day 10; for EAE clinical score, Days After Challenge 11: day 11; for EAE clinical score, Days After Challenge 12: day 12; for EAE clinical score, Days After Challenge 13: day 13; for EAE clinical score, Days After Challenge 14: day 14; for EAE clinical score, Days After Challenge 15: day 15; for EAE clinical score, Days After Challenge 16: day 16; for EAE clinical score, Days After Challenge 17: day 17; for EAE clinical score, Days After Challenge 18: day 18
Protocol: Female Lewis rats, (Charles River Laboratories, Raleigh-Durham, N.C.) were immunized in each hind foot pad with 50 μg of guinea pig myelin basic protein emulsified in complete Freund's adjuvant. The first signs of disease were typically observed 9-11 days post-immunization. Disease severity is scored on a three point scale as follows: 1=limp tail; 2=hind leg weakness; 3=hind leg paralysis. Following a disease course of approximately four to six days, most rats spontaneously recovered and were refractory to subsequent EAE induction.
[…]. KLH-VDJ conjugate was administered at a dose equivalent to 10 μg of KLH per rat. Twenty-nine days later each rat was challenged with 50 μg of guinea pig myelin basic protein in complete Freund's adjuvant in the front footpads. Animals were monitored daily beginning at day 9 for clinical, signs of EAE and were scored as described above.
The preparation, administration and evaluation of these vaccines were conducted as described in Examples I through III with the following exceptions: 50 μg of the individual VDJ peptides were incorporated into vaccine formulations containing CFA; neither vaccinations in IFA nor vaccinations with peptides conjugated to KLH were conducted. Control animals were untreated prior to MBP challenge as in Example III or were vaccinated with emulsions of PBS and CFA to assess the protective effect of adjuvant alone. […]

EAE [2] = experiment: Histologic examination of the CNS of vaccinated, MBP-challenged rats; assay type: in vivo; conditions: Lewis rats, 50 μg peptide in CFA, MBP challenge
Text: Disease was characterized by severe paralysis and wasting, persisted for 4 to 6 days and spontaneously remitted.
Even sub-clinical signs of disease were abrogated.

[3] = Lewis rats, 50 μg peptide in CFA, MBP challenge
[4] = one rat per line, 50 μg rat VDJ peptide in CFA
[5] = one rat per line, 50 μg Vβ8 peptide in CFA
[6] = one rat per line, 50 μg JαTA39 peptide in CFA
[7] = one rat per line, 5 μg VDJ or KLH-VDJ equivalent to 10 μg KLH, in IFA or CFA, hind footpads, MBP challenge 29 days later

Sequence | protection against clinical EAE (animals protected) (EAE [1]; [3]) | EAE clinical score, Days After Challenge 10 (EAE [1]; [4]) | EAE clinical score, Days After Challenge 11 (EAE [1]; [4]) | EAE clinical score, Days After Challenge 12 (EAE [1]; [4]) | EAE clinical score, Days After Challenge 13 (EAE [1]; [4]) | EAE clinical score, Days After Challenge 14 (EAE [1]; [4]) | EAE clinical score, Days After Challenge 15 (EAE [1]; [4]) | EAE clinical score, Days After Challenge 16 (EAE [1]; [4]) | EAE clinical score, Days After Challenge 17 (EAE [1]; [4]) | EAE clinical score, Days After Challenge 18 (EAE [1]; [4]) | onset, severity and duration of EAE (EAE [1]; [3]) | other results
A S S D - S S N T E (ASSDSSNTE) [IR9b] | complete protection in all four animals | — | — | — | — | — | — | — | — | — |  | histologic lesions / T cell infiltration of the CNS (EAE [2]): no histologic lesions characteristic of disease were found in any of the four animals
C A S S D - S G N - V L Y F G E G S R (CASSDSGNVLYFGEGSR) [IR3] |  | 1 and — (2×) | 3 and — (2×) | 3 and 2 and — | 3 (2×) and — | 2 and 3 and — | — | — | — | — | delays in onset were observed in some; also recorded: others showed both delayed onset as well as decreased severity and/or duration of disease | 
C A S S D - S G N T E V F F G K (CASSDSGNTEVFFGK) [IR2] |  | — | — | 1 and — (2×) | 3 and — (2×) | 3 and 2 and 1 | 3 and 2 and — | — (2×) and 3 | — (2×) and 3 | — | delays in onset were observed in some; also recorded: others showed both delayed onset as well as decreased severity and/or duration of disease | 
C A S S D - S S N T E V F F G K (CASSDSSNTEVFFGK) [IR1] |  | — | — | — | 2 and — and 1 | 1 | — and 3 and 1 | — (2×) and 1 | — | — | delays in onset were observed in some; also recorded: others showed both delayed onset as well as decreased severity and/or duration of disease | 
DMGHGLRLIHYSYDVNSTEK [IR7] | One animal was completely protected |  |  |  |  |  |  |  |  |  | Delayed onset as well as decreased severity and duration of disease was observed in one animal | EAE clinical score, Days After Challenge 10 (EAE [1]; [5]): —; EAE clinical score, Days After Challenge 11 (EAE [1]; [5]): —; EAE clinical score, Days After Challenge 12 (EAE [1]; [5]): 1 and — (2×); EAE clinical score, Days After Challenge 13 (EAE [1]; [5]): 2 and — (2×); EAE clinical score, Days After Challenge 14 (EAE [1]; [5]): 3 and 1 and —; EAE clinical score, Days After Challenge 15 (EAE [1]; [5]): 3 and 1 and —; EAE clinical score, Days After Challenge 16 (EAE [1]; [5]): 3 and — (2×); EAE clinical score, Days After Challenge 17 (EAE [1]; [5]): —; EAE clinical score, Days After Challenge 18 (EAE [1]; [5]): —
RFGAGTRLTVK [IR5] | Two of three animals were totally protected |  |  |  |  |  |  |  |  |  | in the third, disease onset was markedly delayed | effectiveness of vaccination compared with other peptides (EAE [1]; [3]): more effective than those observed with the mouse VDJ peptide or the Vβ8 peptide; EAE clinical score, Days After Challenge 10 (EAE [1]; [6]): —; EAE clinical score, Days After Challenge 11 (EAE [1]; [6]): —; EAE clinical score, Days After Challenge 12 (EAE [1]; [6]): —; EAE clinical score, Days After Challenge 13 (EAE [1]; [6]): —; EAE clinical score, Days After Challenge 14 (EAE [1]; [6]): —; EAE clinical score, Days After Challenge 15 (EAE [1]; [6]): 2 and — (2×); EAE clinical score, Days After Challenge 16 (EAE [1]; [6]): 1 and — (2×); EAE clinical score, Days After Challenge 17 (EAE [1]; [6]): 1 and — (2×); EAE clinical score, Days After Challenge 18 (EAE [1]; [6]): 1 and — (2×); EAE clinical score, Days After Challenge 19 (EAE [1]; day 19, one rat per line, 50 μg JαTA39 peptide in CFA): 1 and — (2×); EAE clinical score, Days After Challenge 20 (EAE [1]; day 20, one rat per line, 50 μg JαTA39 peptide in CFA): —; histologic lesions / T cell infiltration of the CNS (EAE [2]): the two animals which were completely protected showed no histologic evidence of T cell infiltration of the CNS
SGDAGGGYE [VDJ (CFA), free VDJ peptide in PBS emulsified with complete Freund's adjuvant] |  |  |  |  |  |  |  |  |  |  |  | EAE clinical score, Days After Challenge 10 (EAE [1]; [7]): —; EAE clinical score, Days After Challenge 11 (EAE [1]; [7]): —; EAE clinical score, Days After Challenge 12 (EAE [1]; [7]): —; EAE clinical score, Days After Challenge 13 (EAE [1]; [7]): 1 and — (2×); EAE clinical score, Days After Challenge 14 (EAE [1]; [7]): 3 and 1 and —; EAE clinical score, Days After Challenge 15 (EAE [1]; [7]): 3 and 1 and —; EAE clinical score, Days After Challenge 16 (EAE [1]; [7]): 3 and 1 and —; EAE clinical score, Days After Challenge 17 (EAE [1]; [7]): 2 and — (2×); EAE clinical score, Days After Challenge 18 (EAE [1]; [7]): —
SGDAGGGYE [VDJ (IFA), free VDJ peptide in PBS emulsified with incomplete Freund's adjuvant] |  |  |  |  |  |  |  |  |  |  |  | EAE clinical score, Days After Challenge 10 (EAE [1]; [7]): —; EAE clinical score, Days After Challenge 11 (EAE [1]; [7]): —; EAE clinical score, Days After Challenge 12 (EAE [1]; [7]): 2 and 1 and —; EAE clinical score, Days After Challenge 13 (EAE [1]; [7]): 3; EAE clinical score, Days After Challenge 14 (EAE [1]; [7]): 3; EAE clinical score, Days After Challenge 15 (EAE [1]; [7]): 3; EAE clinical score, Days After Challenge 16 (EAE [1]; [7]): — and 2 (2×); EAE clinical score, Days After Challenge 17 (EAE [1]; [7]): —; EAE clinical score, Days After Challenge 18 (EAE [1]; [7]): —
